In US11213512B2, “Bis-amino acid based compound and use thereof” (THE CURATORS OF THE UNIVERSITY OF MISSOURI, priority 2016, dated 2022):

Legend:
Tet^R E. coli = assay: Recovery of tetracycline activity (co-administration, MIC of tetracycline); assay type: cell-based, Escherichia coli; conditions: for Fold Recovery of tetracycline activity: tetracycline alone 900 μM
Protocol: MIC experiments were performed as described in the Clinical and Laboratory Standards Institute (CLSI) standard microdilution protocols. Bacteria was grown overnight from one CFU in media without antibiotics. Tet^R E. coli was grown in media containing 100 μg/mL Ampicillin. On the day of experiment, bacteria were knocked back to O.D. 600 nm=0.550 in the same media. These exponential phase bacteria were then diluted in antibiotics-free media to get […]. In a 96-well plate either L. B. Miller or MHII media was added followed by serially diluted compounds 1-11, tetracycline, or ampicillin. All the tryptophan based compounds were dissolved in DMSO and the final concentration of DMSO in each well was kept constant at 0.5% (v/v).
For the combination experiments, first, the BT or control was added to the media in the well followed by the antibiotics. The contents of the well were mixed before adding 20 μL of bacteria to get 4×10^5 CFU/mL per well. The plates were incubated at 37° C., 200 RPM for 24 hours before collecting results on the Biotek Cytation 3 plate reader. No more than three plates were stacked on top of each other at a time. Optical density of the wells was determined at λ=600 nm. Cells alone were considered as 0% inhibition and media alone was considered as 100% inhibition. Any inhibition greater than 80% was considered as the MIC. The results were reproduced three times before reporting.
First, MICs were determined for compounds 2, 3, 5, 6, 7, and 10 against Tet^R E. coli. Compounds 6 (para-Ph) and 7 (n-C3) were also included as controls. The MICs against Tet^R E. coli were refined compared to the power series and are reported as a range in Table 1 above. The MICs of tetracycline and ampicillin against Tet^R E. coli were 900±100 μM and >1000 μM, respectively. For comparison, the MIC for tetracycline against non-resistant E. coli K-12 is ˜3 μM. Ampicillin was used to maintain selective pressure for the expression of pBR322 plasmid. Ampicillin was omitted from experiments that contained tetracycline. Next, the MIC of tetracycline was determined when co-administered with 2, 3, 5, 6, 7, or 10. The results are represented as the MIC of tetracycline in the presence of the indicated BTs. The fold-recovery was determined by dividing the MIC of tetracycline when used alone by the MIC of tetracycline determined in the presence of the compounds.
The fractional inhibitory concentration (FIC) is often used as a measure of synergism or antagonism in comparing two or more compounds (Berenbaum, Pharmacol. Rev. 1989, 41, 93-141). The FIC is the sum of the fraction of the MIC for each compound used. Synergy is defined broadly as FIC<1, or more conservatively as FIC≤0.5. Under the broad definition, all compounds tested can be said to have at least moderate synergy with tetracycline. All arene-based compounds fit the more conservative definition of synergy with FIC values of 0.5 or less at the tested concentrations.

HEK-293 cells = assay: Cytotoxicity to mammalian cells, XTT assay; assay type: cell-based, human; conditions: 24 h
Protocol: (§1) It was initially hypothesized that antimicrobial activity resulted from membrane disruption. Membrane active compounds are often cytotoxic to mammalian cells (Shai, Biopolymers 2002, 66, 236-48; Shai, et al., Curr. Protein Pept. Sci. 2006, 7, 479-86). The survival of three mammalian epithelial cell lines was assayed for 2, 3, 5, and 10. […] The cell lines studied were human embryonic kidney (HEK-293), human cervix epithelial (HeLa, ATCC Accession No. CCL-2), and Cercopithecus aethiops kidney (Cos-7, ATCC Accession No. CRL 1651). HeLa cells were acquired from ATCC. Cos-7 and HEK-293 cells were donated by colleagues. Cell lines were regularly maintained in growth media containing DMEM (ATCC), 10% fetal bovine serum (FBS, ATCC) and 1% penicillin-streptomycin solution (ATCC). Adherent HEK-293, HeLa and Cos-7 cells were trypsinized using 0.25% (w/v) trypsin-EDTA (Sigma-Aldrich), suspended in a fresh media and diluted to get a concentration of 3×10^5 cells/ml. Cells were seeded in a 96-well plate (100 μL/well) to get 3×10^4 cells/well. The plates were incubated for 24 hours at 5% CO2 and 37° C. to reach a confluency of 80-90%.
(§2) In a sterile 1.5 mL micro-centrifuge tube, compounds 2, 3, 5, 6, 7 and 10 (0.5% DMSO) were mixed with assay media (DMEM+10% FBS) and serially diluted by 2-fold each to get 2[MIC], [MIC], ½[MIC] and ¼ [MIC] concentrations. A control containing 0.5% DMSO was also prepared. After 24 hours, the spent media in the 96-well plate containing HEK-293, HeLa and Cos-7 cells (90% confluency) was replaced with 100 μL media containing the compounds 2, 3, 5, 6, 7 and 10 at various concentrations. The cells were incubated at 37° C. and 5% CO2 for 24 hours before performing XTT assay (Sigma-Aldrich). The XTT assay was performed according to the manufacturer's protocol. After 24 hours of treatment with compounds, the media was replaced with PBS and 25 μL XTT was added to each well. The XTT assay works by the reduction of tetrazolium compound by alive cells to the colored soluble formazan product. The absorbance of the product was measured at 450 nm (XTT) and 690 nm (background). Percent survival was calculated by comparing the average absorbance of cells treated with compounds 2, 3, 5, 6, 7, and 10 to that of cells alone. Two replicates for each treatment were determined. Average percent survival and standard deviation were calculated.
(§3) Cells were cultured for 24 h in 96-well plates and treated with media containing concentrations using [MIC] and [MIC]×2 determined previously for Tet^R E. coli. The number of surviving cells was determined using an XTT assay (Sigma-Aldrich); the results are represented as percent survival in FIG. 2. Cells alone were used as controls and established 100% survival. The data represent two replicates of three trials and the error bars represent the standard deviation.

HeLa cells = assay: Cytotoxicity to mammalian cells, XTT assay; assay type: cell-based, human; conditions: 24 h
Protocol: as §1, §2, §3

[1] = compound at ¼ MIC (2: 12, 3: 7, 5: 14, 6: 30, 7: 30, 10: 2.5 μM)
[2] = compound at ½ MIC (2: 24, 3: 14, 5: 28, 6: 60, 7: 60, 10: 5 μM)
[3] = at MIC against Tet^R E. coli (2: 48, 3: 28, 5: 56, 6: 120, 7: 128, 10: 10 μM)
[4] = at twice the MIC (FIG. 3 legend: 2: 96, 3: 56, 5: 112, 6: 240, 7: 256, 10: 20 μM)

## Cl.Cl.N[C@H](Cc1c[nH]c2ccccc12)C(=O)Nc1cccc(NC(=O)[C@H](N)Cc2c[nH]c3ccccc23)c1 [Compound 3, (2R,2′R)-1,1′-(1,3-Phenylenebis(azanediyl))bis(3-(1H-indol-3-yl)-1-oxopropan-2-aminium) chloride]
Tet^R E. coli; [1]
  FIC (fractional inhibitory concentration) with tetracycline: 0.50
  MIC [Tet] (tetracycline in the presence of the compound): 225 µM
  Fold Recovery of tetracycline activity: 4-fold
Tet^R E. coli; [2]
  FIC (fractional inhibitory concentration) with tetracycline: 0.63
  MIC [Tet] (tetracycline in the presence of the compound): 112.5 µM
  Fold Recovery of tetracycline activity: 8-fold
HEK-293 cells; [3]
  percent survival HEK-293: 100%
HEK-293 cells; [4]
  percent survival HEK-293: 62%
HeLa cells; [3]
  percent survival HeLa: 100%
HeLa cells; [4]
  percent survival HeLa: 29%
other
  melting point: 242 °C (dec.)
